Experimental data from paper PMC5581743, “Synthesis, characterization, anti-ulcer action and molecular docking evaluation of novel benzimidazole-pyrazole hybrids” (Chemistry Central Journal, 2017).

Test system: ethanol-induced gastric ulcers in rats
Assay: ethanol-induced gastric ulcer model in rats (anti-ulcerogenic activity)
Assay type: in vivo, Albino rats
Design: key to Ulcer index: sum of lesion lengths (mm) per stomach
Conditions: for Ulcer index: mean ± SEM, n = 5; for % Inhibition: versus saline group
Description: Albino rats (weighing 180-220 g) were housed at the animal house of the […] Institute of Pharmaceutical Sciences under controlled environment (23-25 °C). Animals were kept in plastic cages with sawdust (changed at every 48 h) and were fasted for 24 h before starting the experiment. Animals were provided with tap water ad libitum and standard pellet diet. Experiments performed complied with rules of Institute of Laboratory Animal Resources, Commission on Life Sciences University, National Research Council (1996) and were approved by Ethical Committee of […] Institute of Pharmaceutical Sciences, […] International University. Albino rats (180-220 g) of either sex were divided into different groups (n = 5). Animals were fasted for 24 h before the study, but had free access to water. Animals in the control group received only normal saline (10 mL/kg). Compound 5a at doses of 100 and 500 μg/kg, (p. o.) was given to the animals in the treatment group. Same procedure was repeated for Compund 5b, 5c, 5d, 5e and 5f. Omeprazole (30 mg/kg) was used as a standard. The rats were sacrificed 1 h later and the stomach removed and observed for ulcers in the glandular region. The surface area of each lesion was measured and scored by method with described by Tan et al. with some modifications. The ulcer index for each rat was taken as the mean ulcer score (0: no ulcer; 1: US ≤ 0.5 mm^2; 2: 0.5 < US ≤ 2.5 mm^2; 3: 2.5 mm^2 < US ≤ 5 mm^2; 4: 5 mm^2 < US ≤ 10 mm^2; 5: 10 mm^2 < US ≤ 15 mm^2; 6: 15 mm^2 < US ≤ 20 mm^2; 7: 20 mm^2 < US ≤ 25 mm^2; 8: 25 mm^2 < US ≤ 30 mm^2; 9: 30 mm^2 < US ≤ 35 mm^2; 10: US > 35 mm^2). The sum of the length (mm) of all the lesions for each stomach was used as the ulcer index (UI). The percentage of inhibition (% I) was calculated using the following formula: %I=USc-USt×100/USc where USc = ulcer surface area of control and USt = ulcer surface area of test animal. The anti-ulcer activity of all the benzimidazole-pyrazole hybrids 5a-f was tested in vivo by ethanol-induced gastric ulcer model in rats. Rats received test compounds in two different doses; 100 and 500 μg/kg orally. Omeprazole (30 mg/kg) was used as a standard. The rats were sacrificed 1 h later and the stomach removed and observed for ulcers in the glandular region. The surface area of each lesion was measured and scored by method. […] Figure 2 show the gastric mucosa of rats. […] The results clearly indicated the greater anti-ulcer potential of our synthesized compounds as compared to omeprazole, the currently used anti-ulcer drug. […] It was observed that substitution pattern of both the aromatic rings attached to pyrazole ring effect the anti-ulcer activity. The highest activity was shown by compound 5d i.e. 83.1% at 500 μg/kg dose. All the compounds were docked against H^+/K^+ ATPase to assess the binding affinities and compared with Omeprazole which is a known mercapto benzimidazole derivative and H^+/K^+ ATPase inhibitor. […] 5d has maximum binding affinity of -9.8 kcal/mole due to maximum number of hydrogen bonding interactions with the target.

[1] = 100 µg/kg p.o. + ethanol (1 mL/100 g)
[2] = 500 µg/kg p.o. + ethanol (1 mL/100 g)
[3] = 30 mg/kg + ethanol (1 mL/100 g)

| Structure (SMILES) | Ulcer index [1] | % Inhibition [1] [%] | Ulcer index [2] | % Inhibition [2] [%] | Ulcer index [3] | % Inhibition [3] [%] | % Inhibition (30 mg/kg + ethanol (1 mL/100 g), listed as omeprazole) [%] |
| --- | --- | --- | --- | --- | --- | --- | --- |
| O=C(CSc1nc2ccccc2[nH]1)n1nc(-c2ccccc2)cc1-c1ccccc1O [Compound 5a, 2-(1H-benzimidazol-2-ylsulfanyl)-1-[5-(2-hydroxyphenyl)-3-phenyl-1H-pyrazol-1-yl]ethanone] | 3.22 ± 0.009 | 35.4 | 1.07 ± 0.008 | 78.5 |  |  |  |
| O=C(CSc1nc2ccccc2[nH]1)n1nc(-c2ccccc2O)cc1-c1ccccc1O [Compound 5b, 2-(1H-benzimidazol-2-ylsulfanyl)-1-[3,5-bis(2-hydroxyphenyl)-1H-pyrazol-1-yl]ethanone] | 3.48 ± 0.008 | 30.2 | 1.26 ± 0.009 | 74.7 |  |  |  |
| COc1ccc(-c2cc(-c3ccccc3O)n(C(=O)CSc3nc4ccccc4[nH]3)n2)cc1O [Compound 5c, 2-(1H-benzimidazol-2-ylsulfanyl)-1-[5-(2-hydroxyphenyl)-3-(3-hydroxy-4-methoxyphenyl) -1H-pyrazol-1-yl]ethanone] | 3.52 ± 0.009 | 29.4 | 1.48 ± 0.009 | 70.3 |  |  |  |
| O=C(CSc1nc2ccccc2[nH]1)n1nc(-c2ccccc2)cc1-c1ccccc1 [Compound 5e, 2-(1H-benzimidazol-2-ylsulfanyl)-1-(3,5-diphenyl-1H-pyrazol-1-yl)ethanone] | 3.18 ± 0.01 | 36.2 | 1.06 ± 0.01 | 79 |  |  |  |
| COc1ccc(-c2cc(-c3ccccc3)nn2C(=O)CSc2nc3ccccc3[nH]2)cc1O [Compound 5f, 2-(1H-benzimidazol-2-ylsulfanyl)-1-[5-(3-hydroxy-4-methoxyphenyl)-3-phenyl-1H-pyrazol-1-yl]ethanone] | 3.75 ± 0.016 | 24.8 | 1.39 ± 0.02 | 72.1 |  |  |  |
| COc1ccc2[nH]c([S+]([O-])Cc3ncc(C)c(OC)c3C)nc2c1 (centres unmarked) [Omeprazole, reference compound] |  |  |  |  | 0.84 ± 0.01 | 83.1 | 83 |
